From patent publication US8202886B2, “Small molecule E2F inhibitor” (H. Lee Moffitt Cancer Center and Research Institute, Inc., priority 2008, dated 2012)

system: 8226-s, 8226-dox40 and 8226-MR20; assay: PARP cleavage western in drug sensitive and resistant 8226 lines; type: cell-based, human; conditions: 24 hours; 10 μM cisplatin or 10, 20 or 40 μM HLM006474
Experimental: Cells were collected 24 hours post drug exposure and extracts subjected to western blotting using antibodies to the indicated proteins. Cleavage of PARP indicates apoptosis.

Question: Which “PARP cleavage (apoptosis) in sensitive versus resistant lines” value does the source give for N.N.[Cl][Pt][Cl] [cisplatin, reference compound] here?
Answer: The value was “Minimal PARP cleavage”.

system: E2F4-deficient MEFs; assay: not given; conditions: earlier work of the inventors (Ma et al., 2004); cited from earlier work

Question: Which “sensitivity of E2F4-deficient MEFs to other drugs” value (shortened to “sensitivity of E2F4-deficient MEFs”) does the source give for CC[C@H](CO)Nc1nc(NCc2ccccc2)c2ncn(C(C)C)c2n1 [roscovitine] here?
Answer: The value was “more sensitive”.

Question: For N.N.[Cl][Pt][Cl] [cisplatin, reference compound], which “sensitivity of E2F4-deficient MEFs” value is on record?
Answer: Its value is “more sensitive”.

Question: For CN1CC[C@H](c2c(O)cc(O)c3c(=O)cc(-c4ccccc4Cl)oc23)[C@H](O)C1 [flavopiridol], which “sensitivity of E2F4-deficient MEFs” value is on record?
Answer: Its value is “more sensitive”.

Question: For CC(C)(C)c1cnc(CSc2cnc(NC(=O)C3CCNCC3)s2)o1 [SNS-032], which “sensitivity of E2F4-deficient MEFs” value is on record?
Answer: Its value is “more sensitive”.

Question: For COc1cc([C@@H]2c3cc4c(cc3[C@@H](O[C@@H]3O[C@@H]5CO[C@@H](C)O[C@H]5[C@H](O)[C@H]3O)[C@H]3COC(=O)[C@H]23)OCO4)cc(OC)c1O [VP16, etoposide], which “sensitivity of E2F4-deficient MEFs” value is on record?
Answer: The value was “more sensitive”.
